Test results as given in paper PMC11946789, “Two Amino Acid Substitutions Improve the Pharmacological Profile of the Snake Venom Peptide Mambalgin” (Toxins, 2025).
Read-outs that look alike come from different tables or passages of the source. Bridges are numbered along the chain shown (N, C = ends). Where no end group is shown, it is not given here.

Experiments:
[1] = biological target: T1, homomeric rASIC1a (rat ASIC1a) (Rattus norvegicus, UniProt P55926); assay: TEVC recordings, homomeric rASIC1a; type: cell-based; details: for increase in desensitization rate of rASIC1a: pH 5.5-induced currents, 1 µM peptide, decay constant τdes, single exponential fit, 8 to 17 cells; for IC50: peptide applied 30 s before activation, Xenopus laevis oocytes, mean ± S.E.M., n = 6, read-out: half-maximal inhibitory concentration (IC50); for Emax: pH stimulus 5.5, inhibition not complete, read-out: maximum effect (inhibition)
T1 construct: expressed in transfected cells; host or cells: Xenopus laevis oocytes, mRNA microinjected
T1 sequence (P55926 1-526): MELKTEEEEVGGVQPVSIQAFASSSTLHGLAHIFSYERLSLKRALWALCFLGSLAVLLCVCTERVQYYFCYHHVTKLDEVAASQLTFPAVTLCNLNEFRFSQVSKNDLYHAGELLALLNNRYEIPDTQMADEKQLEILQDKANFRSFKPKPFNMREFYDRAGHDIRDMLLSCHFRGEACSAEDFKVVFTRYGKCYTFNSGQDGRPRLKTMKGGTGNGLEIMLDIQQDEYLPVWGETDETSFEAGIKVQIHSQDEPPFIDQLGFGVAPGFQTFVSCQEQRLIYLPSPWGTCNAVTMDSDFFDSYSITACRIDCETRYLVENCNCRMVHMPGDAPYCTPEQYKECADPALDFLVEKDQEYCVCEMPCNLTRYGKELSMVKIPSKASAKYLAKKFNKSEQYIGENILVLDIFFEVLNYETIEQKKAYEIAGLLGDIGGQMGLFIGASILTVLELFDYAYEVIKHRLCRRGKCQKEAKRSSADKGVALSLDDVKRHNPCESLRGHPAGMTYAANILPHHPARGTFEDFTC
Method: The functional activity of Mamb-AL and its comparison with wild-type Mamb were assessed using two-electrode voltage clamp (TEVC) recordings in Xenopus laevis oocytes heterologously expressing rASIC1a.
Figure 3 The inhibitory effect of Mamb-AL on rASIC1a exceeds that of Mamb. (A,C) Representative current traces showing the effects of various concentrations of Mamb (left panels) and Mamb-AL (right panels) on rASIC1a at pH stimuli of 5.5 (A) and 6.7 (C). Currents were induced by pH stimuli after a conditioning pH of 7.4, with peptides applied for 30 s prior to channel activation. The holding potential (Vh) was set to −50 mV, and the interval between applications varied from 1 to 2 min. (B,D) Dose–response curves for the inhibitory effects of Mamb and Mamb-AL on rASIC1a at pH stimuli of 5.5 (B) and 6.7 (D). Each data point represents measurements from six cells. (E) Bar plot showing statistical analysis of IC50 values calculated from the dose–response fits for the peptides’ inhibitory effects on individual cells (n = 6). **** p< 0.001; one-way ANOVA followed by Dunnett’s post hoc test. (F) Statistical analysis of the effects of 1 µM peptide concentration on the decay constant (τdes) at a pH stimulus of 5.5. Each data point represents data from 8 to 17 cells. * p< 0.05, **** p< 0.001 compared with control, paired t-test; & p< 0.05 comparing Mamb and Mamb-AL, unpaired t-test. Data are presented as mean ± S.E.M.
Female X.laevis frogs were anesthetized with 0.17% ethyl 3-amino-benzoate methane sulfonate (MS222). A small ovarian section was surgically removed via an abdominal incision and placed in ND96 medium (96 mM NaCl, 2 mM KCl, 1.8 mM CaCl2, 1 mM MgCl2, and 5 mM HEPES, pH 7.4, adjusted with NaOH). […] Each animal underwent surgeries at intervals of no less than three months. Connective tissue and follicular sheaths were removed by incubating ovarian tissue in calcium-free ND96 medium containing collagenase (1 mg/mL) for 2 h at 21 °C. Healthy, mature stage IV and V oocytes were selected and stored in ND96 medium. PCi plasmids encoding rat ASIC1a, ASIC1b, or ASIC3 served as templates for synthesizing the corresponding messenger RNAs (mRNAs), which were then microinjected into oocytes (0.2–10 ng per oocyte) using a Nanolitre 2000 microinjection system (World Precision Instruments, Sarasota, FL, USA) 16–18 h after oocyte isolation. Injected oocytes were incubated in ND96 medium supplemented with penicillin and gentamicin (50 µg/mL each) at 18 °C for 2–3 days, followed by storage at 14 °C for up to 7 days.
(§1) Whole-cell ASIC currents were measured using the two-electrode voltage clamp (TEVC) method with a GeneClamp 500 amplifier (Axon Instruments, Union City, NJ, USA). The holding potential maintained at –50 mV. Glass microelectrodes (0.5–2.5 MΩ) were filled with 3 M KCl solution, and ND96 (pH 7.4) was used as the external bath solution. ASIC currents were activated by rapidly switching the external solution from ND96 to either ND96 containing 10 mM MOPS (pH 6.7) or ND96 containing 10 mM MES (pH 5.5). Solution exchange was controlled using a custom-built computer-driven valve system. Data were filtered at 10 Hz and digitized at 100 Hz using an L780M ADC (LCard, Moscow, Russia). Peptides Mamb and Mamb-AL were applied for 30 s at pH 7.4 prior to acid stimulation of the channels.
(§2) Electrophysiological and behavioral data were analyzed using OriginPro 8.6.0 (OriginLab, Washington, DC, USA). […] The rate of current decay was fitted using a single exponential decay function: F(x) = A*eˆ(−x/τdes) + A0, where A0 is the minimal current response and τdes is the decay constant. Statistical significance between the Mamb and Mamb-AL groups was determined using an unpaired t-test. Data are presented as mean ± SEM.

[2] = tested on: homomeric rat ASIC3 channels; assay: TEVC recordings, homomeric ASIC3; type: cell-based; details: pH stimulus; n = 5; ns vs control, paired t-test
Excerpt: Figure 4 The inhibitory effect of Mamb-AL on other ASIC1-containing channels exceeds that of Mamb. (A,C) Representative current traces showing the effects of various concentrations of Mamb (left panels) and Mamb-AL (right panels) on homomeric rat ASIC1b (rASIC1b) (A) and heteromeric rat ASIC1a/3 (rASIC1a/3) channels (C). Currents were evoked by a pH 5.5 stimulus following a conditioning pH of 7.4, with peptides applied for 30 s prior to the pH stimulus. (B) Dose–response curves for the inhibitory effects of Mamb and Mamb-AL on rASIC1b. Each data point represents measurements from 5 to 7 cells. (D) Bar graph quantifying the inhibitory effects of Mamb and Mamb-AL on rASIC1a/3, shown as a percentage of the corresponding control currents (n = 5). Data are presented as mean ± SEM; * p< 0.05, unpaired t-test. […] Data are shown as mean ± SEM; ns indicates no significant difference vs. control (dotted horizontal line), paired t-test. […]
Whole-cell ASIC currents were measured using the two-electrode voltage clamp (TEVC) method with a GeneClamp 500 amplifier (Axon Instruments, Union City, NJ, USA). […]
Electrophysiological and behavioral data were analyzed using OriginPro 8.6.0 (OriginLab, Washington, DC, USA). […] Statistical significance between the Mamb and Mamb-AL groups was determined using an unpaired t-test. […]

ASIC = assay: TEVC recordings, ASIC1-containing channel not specified; type: cell-based, rat; details: channel and pH not given; for Hill coefficient: Hill equation fit
Method: as §1, §2

Sequence | greater inhibition of homomeric ASIC1a channels ([1]; compared with Mamb, pH not stated) | increase in desensitization rate of rASIC1a [1] [%] | Mamb-AL outperformed Mamb (inhibition of rASIC1a) ([1]; pH 6.7, relative to Mamb) | IC50 ([1]; pH stimulus 5.5, conditioning pH 7.4, Vh −50 mV) [µM] | Emax [1] [%] | complete inhibition ([1]; pH stimulus 6.7) [%] | IC50 ([1]; pH stimulus 6.7, conditioning pH 7.4, Vh −50 mV) [µM] | effect on rat ASIC3 channels [2] | Hill coefficient (ASIC) | maximum inhibition (in words) (ASIC; compared with wild-type peptide)
LKCYQHGKVVTCHRDAKFCYHNTGLPFRNLKLILQGCSSSCSETENNKCCSTDRCNK (disulfide 3-19, 12-37, 41-49, 50-55 (inferred)) [Mamb-AL] | three-fold | 45 | more than threefold | 0.062 ± 0.009 | ~90 | 100 | 0.025 ± 0.003 | neither wild-type Mamb nor Mamb-AL exhibited any detectable effects | 1.4 ± 0.1 | unable to fully block channel activity, leading to a reduced maximum inhibition rate
LKCFQHGKVVTCHRDMKFCYHNTGMPFRNLKLILQGCSSSCSETENNKCCSTDRCNK (disulfide 3-19, 12-37, 41-49, 50-55 (inferred)) [Mamb] | – | 24 | – | – | ~90 | – | – | neither wild-type Mamb nor Mamb-AL exhibited any detectable effects | 1.54 ± 0.03 | –
